Source: patent US6403651B1, “Mediation of circadian rhythms” (Luminis Pty Limited, priority 1997, dated 2002)

Key:
[1] = tested on: light pulse induced phase delay in aMT.6S onset; test: Effect of serotonin antagonists on the melatonin response to a light pulse; assay type: in vivo, rat; settings: metergoline 15 mg/kg or ritanserin 3 mg/kg at CT17.5, light 2 lux/1 minute at CT18
Protocol: Male albino wistar rats (100 g, n=5-10) were housed in metabolism cages in lightproof environment chambers in 12 hours of light followed by 12 hours of darkness, designated 12L:12D. After 3-4 days acclimation to a liquid diet (Osmolite HN) hourly urine collections commenced. The general experimental design was: Melatonin production was monitored by the urinary excretion of 6-sulphatoxymelatonin (aMT.6S), determined by radioimmunoassay. The time of onset of metabolite excretion was defined as the time of day that the excretion rate exceeded 20 pmol/h. To determine the effects of the serotonin antagonist, metergoline (15 mg/kg), ritanserin (3 mg/kg) and LY-53,857 (3 mg/kg) on the melatonin response to a light pulse, the drugs were administered at CT17.5. At CT18, a 2 lux light pulse was given for one minute. Using similar methodology the effects on c-fos induction in the SCN were determined.

[2] = tested on: DOI induced phase delay in melatonin production; test: Effects of serotonin antagonists on the melatonin response to DOI; assay type: in vivo, rat; settings: antagonist 0.07 μmole/kg 30 minutes prior to DOI (1.4 μmole/kg) at CT18
Protocol: (§1) Male albino wistar rats (100 g, n=5-10) were housed in metabolism cages in lightproof environment chambers in 12 hours of light followed by 12 hours of darkness, designated 12L:12D. After 3-4 days acclimation to a liquid diet (Osmolite HN) hourly urine collections commenced. The general experimental design was:
(§2) Melatonin production was monitored by the urinary excretion of 6-sulphatoxymelatonin (aMT.6S), determined by radioimmunoassay. The time of onset of metabolite excretion was defined as the time of day that the excretion rate exceeded 20 pmol/h.
The effects of the serotonin antagonists ritanserin and ketanserin on the melatonin response to DOI was determined. Both drugs were administered in doses of 0.7, 0.28 and 0.07 μmole/kg, 30 minutes prior to DOI (1.4 μmole/kg; 0.5 mg/kg) at CT 18; In addition, ritanserin (6.3 μmole/kg) and ketanserin (18 μmole/kg) were administered 30 minutes prior to saline injection at CT 18. Both antagonists were dissolved in DMSO and injected in a volume of 200 μl.

[3] = tested on: DOI induced c-Fos in the rat SCN; test: Effects of antagonists on DOI induced c-Fos in the SCN; assay type: in vivo
Protocol: As a check on the specificity of the response (SCN versus direct pineal effects) experiments were also conducted to monitor c-Fos induction in the SCN in response to the treatments. Animals were sacrificed by decapitation 2 hours after treatments. Brains were removed immediately and fixed by immersion in a 4% solution of paraformaldehyde in 0.1 M buffer (pH 7.4) at room temperature. After approximately 30 hours in the fixative solution at room temperature, the brains were briefly rinsed in phosphate buffered saline (PBS) and 70 μm coronal sections were obtained on a microtome. Free floating sections were permeabilised in a 0.3% solution of Triton X-100 in PBS at 4° C. overnight. […] The immunopositive cells were quantified using a computerised image analysis system.
To determine the effects of the antagonists on c-Fos induction in the SCN, ritanserin and ketanserin were injected in doses of 1.4, 0.7 and 0.14 μmole/kg at ZT 17.5. […] The response to ritanserin (6.3 μmole/kg) and ketanserin (18 μmole/kg) administered 30 minutes prior to saline injection at CT 18 was also determined.

5-HT2c receptors = target: T1, 5-HT2c receptors (Homo sapiens, UniProt P28335); settings: ritanserin versus ketanserin, stated as known; cited from earlier work
T1 sequence (P28335 33-458): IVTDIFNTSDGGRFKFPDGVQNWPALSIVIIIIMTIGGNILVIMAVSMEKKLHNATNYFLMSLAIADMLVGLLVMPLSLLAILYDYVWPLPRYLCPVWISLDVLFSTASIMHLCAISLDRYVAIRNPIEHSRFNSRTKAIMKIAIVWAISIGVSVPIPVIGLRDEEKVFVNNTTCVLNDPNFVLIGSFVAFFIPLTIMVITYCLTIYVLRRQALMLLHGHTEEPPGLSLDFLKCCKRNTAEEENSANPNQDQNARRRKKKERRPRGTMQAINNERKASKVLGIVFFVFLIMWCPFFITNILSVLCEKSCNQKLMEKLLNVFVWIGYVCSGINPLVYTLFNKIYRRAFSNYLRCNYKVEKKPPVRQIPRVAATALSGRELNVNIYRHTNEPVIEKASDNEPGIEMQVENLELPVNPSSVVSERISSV

[4] = tested on: melatonin production (urinary aMT.6S excretion); test: 6-Sulphatoxymelatonin rhythmicity after agonist administration at CT18; assay type: in vivo, rat; settings: DOI 0.5 mg/kg (1.4 μmole/kg) at CT18, rats in continuous darkness
Protocol: as §1
Night 1: Control collection-lights remained off from lights out for the remainder of the experiment.
Night 2: Drug administration or light pulses administered at CT 18, i.e., 6 hours after the subjective lights out. Urine collections were maintained throughout the subjective night.
Nights 3 & 4: Urine collections continued to determine any entraining effects of the stimuli.
as §2
Two lighting conditions were used to investigate the effects of drugs on SCN/pineal gland function; animals held in a light: dark cycle (L:D; Type VI method of Aschoff) and animals acutely transferred to continuous darkness (DD; Type II method of Aschoff) [Aschoff J. Response curves in circadian periodicity. In Aschoff J., ed. Circadian Clocks. Amsterdam: North Holland Publishing, 1965:95-111]. […]

[5] = tested on: core body temperature rhythm; test: Core body temperature rhythm studies; assay type: in vivo, rat; settings: DOI 0.5 mg/kg subcutaneously at CT18, rats
Protocol: Groups of 5 rats were implanted with temperature transmitters under 3% halothane/oxygen anaesthesia and kept in individual cages on a 12L: 12D photoperiod. Five days after implanting the transmitters, the lights were turned off at the normal time (ZT12) and remained off for 5 days. The animals were injected subcutaneously with either DOI (0.5 mg/kg) or saline vehicle at CT18 (ie 30 hours after last lights off). The temperature was sampled at 10 minute intervals. Five days after the drug treatment the animals were re-entrained to the LD cycle for 8 days and either exposed to a 5 minute/20 lux light pulse 30 hours after re-initiation of constant darkness or left untreated. To determine any delays in the temperature rhythm, the time of the day that the temperature dropped below the group daily mean (37.4° C.) was calculated and the mean delay±SEM determined.

Compound: CN1C[C@H](CNC(=O)OCc2ccccc2)C[C@@H]2c3cccc4c3c(cn4C)C[C@H]21 [metergoline]
- block of the phase delay in aMT.6S onset induced by the light pulse [1]: failure of the antagonists to block the phase delay

Compound: Cc1nc2sccn2c(=O)c1CCN1CCC(=C(c2ccc(F)cc2)c2ccc(F)cc2)CC1 [ritanserin]
- effect on DOI induced phase delay in melatonin production [2]: inhibits
- inhibition of the increase in appearance of c-Fos caused by a 5-HT2c high affinity compound ([3]; comparison of ritanserin with ketanserin pre-treatment): greater effect than ketanserin
- block of the phase delay in aMT.6S onset induced by the light pulse [1]: failure of the antagonists to block the phase delay
- affinity for 5-HT2c receptors relative to ketanserin (5-HT2c receptors): 10 fold

Compound: COc1cc(CC(C)N)c(OC)cc1I (racemic) [DOI, (+/−)-1-(4-iodo-2,5-dimethoxy-phenyl)-2-aminopropane]
- melatonin metabolite (aMT.6S) excretion immediately following injection [4]: acute decrease
- morning decline in body temperature [5]: significantly delayed

Compound: O=C(c1ccc(F)cc1)C1CCN(CCn2c(=O)[nH]c3ccccc3c2=O)CC1 [ketanserin]
- effect on DOI induced phase delay in melatonin production [2]: ineffective
- number of cells positive for c-Fos per unilateral SCN after DOI ([3]; antagonist 0.7 μmole/kg 30 minutes before DOI (1.4 μmole/kg)): significantly greater (P<0.05) than those observed following ritanserin 0.7 μmole/kg but not significantly different from the vehicle control
